Data reported in ChEMBL document CHEMBL3885861, “Open TG-GATES”.

Species: Rattus norvegicus
Assay: Open TG-GATES - Regimen: Daily Repeat
Type: toxicity, organism-based, Sprague-Dawley
Set-up: regimen Daily Repeat, gender Male, age 6 weeks
Details: in vivo, po, 2 mg/kg, route gavage, dose level Low; for APTT / Bas / Eos / Fbg / Hb / Ht / Lym / MCH / MCHC / MCV / Mono / Neu / PT / Plat / RBC / Ret / WBC: tissue Blood; for KIDNEY_L / KIDNEY_R / KIDNEY_TOTAL: tissue Kidney; for LIVER: tissue Liver; for ALP / ALT / AST / BUN / CRE / Ca / Cl / DBIL / GLC / IP / K / LDH / Na / PL / RALB / TBIL / TC / TG / TP / gamma-GTP: tissue Plasma

## O=P1(N(CCCl)CCCl)NCCCO1 (stereo not drawn) [CYCLOPHOSPHAMIDE ANHYDROUS]
72 h, time 3 day
  TERMINAL_BW: 217.7 g
  APTT: 20.8 s
  Bas: 0%
  Eos: 1%
  Fbg: 299.8 mg/dL
  Hb: 13.3 g/dL
  Ht: 40.1%
  Lym: 79.8%
  MCH: 21.3 pg
  MCHC: 33.1%
  MCV: 64.3 fL
  Mono: 3%
  Neu: 15%
  PT: 16.5 s
  Plat: 126.5 x10_4/uL
  RBC: 624.6 x10_4/ul
  Ret: 6.5%
  WBC: 74.5 x10_2/uL
  KIDNEY_L: 1 g
  KIDNEY_R: 1 g
  KIDNEY_TOTAL: 1.9 g
  LIVER: 10.2 g
  ALP: 1778.2 IU/L
  ALT: 40.2 IU/L
  AST: 67 IU/L
  BUN: 17.8 mg/dL
  CRE: 0.2 mg/dL
  Ca: 10.8 mg/dL
  Cl: 106 meq/L
  DBIL: 0 mg/dL
  GLC: 187.4 mg/dL
  IP: 7.1 mg/dL
  K: 4.1 meq/L
  LDH: 164.8 IU/L
  Na: 141.8 meq/L
  PL: 160.8 mg/dL
  RALB: 3.1 g/dL
  TBIL: 0.012 mg/dL
  TC: 78.2 mg/dL
  TG: 121.6 mg/dL
  TP: 5.6 g/dL
  gamma-GTP: 1.2 IU/L
[…], time 7 day
  TERMINAL_BW: 254.7 g
  APTT: 22.6 s
  Bas: 0%
  Eos: 0.6%
  Fbg: 282.6 mg/dL
  Hb: 13.3 g/dL
  Ht: 40.1%
  Lym: 80.8%
  MCH: 21.7 pg
  MCHC: 33.2%
  MCV: 65.3 fL
  Mono: 2.4%
  Neu: 15.4%
  PT: 16.8 s
  Plat: 130 x10_4/uL
  RBC: 613.8 x10_4/ul
  Ret: 5.8%
  WBC: 88.7 x10_2/uL
  KIDNEY_L: 1.1 g
  KIDNEY_R: 1.1 g
  KIDNEY_TOTAL: 2.3 g
  LIVER: 12 g
  ALP: 1581 IU/L
  ALT: 41.4 IU/L
  AST: 69.4 IU/L
  BUN: 16.6 mg/dL
  CRE: 0.2 mg/dL
  Ca: 10.9 mg/dL
  Cl: 105 meq/L
  DBIL: 0 mg/dL
  GLC: 184.6 mg/dL
  IP: 7.7 mg/dL
  K: 4.2 meq/L
  LDH: 193.6 IU/L
  Na: 143.2 meq/L
  PL: 158.2 mg/dL
  RALB: 3 g/dL
  TBIL: 0.02 mg/dL
  TC: 76.8 mg/dL
  TG: 137.2 mg/dL
  TP: 5.5 g/dL
  gamma-GTP: 3.6 IU/L
[…], time 14 day
  TERMINAL_BW: 305.2 g
  APTT: 22.2 s
  Bas: 0%
  Eos: 0.8%
  Fbg: 315 mg/dL
  Hb: 13.9 g/dL
  Ht: 41%
  Lym: 82.6%
  MCH: 20.2 pg
  MCHC: 33.9%
  MCV: 59.7 fL
  Mono: 2.4%
  Neu: 13.2%
  PT: 14.8 s
  Plat: 121.1 x10_4/uL
  RBC: 687.8 x10_4/ul
  Ret: 4.7%
  WBC: 88.9 x10_2/uL
  KIDNEY_L: 1.2 g
  KIDNEY_R: 1.2 g
  KIDNEY_TOTAL: 2.5 g
  LIVER: 13.3 g
  ALP: 1389 IU/L
  ALT: 34.4 IU/L
  AST: 60.6 IU/L
  BUN: 18.2 mg/dL
  CRE: 0.2 mg/dL
  Ca: 10.7 mg/dL
  Cl: 107.2 meq/L
  DBIL: 0.002 mg/dL
  GLC: 174.4 mg/dL
  IP: 6.5 mg/dL
  K: 4.2 meq/L
  LDH: 141.4 IU/L
  Na: 142.8 meq/L
  PL: 150.4 mg/dL
  RALB: 3.1 g/dL
  TBIL: 0.022 mg/dL
  TC: 71.4 mg/dL
  TG: 145.6 mg/dL
  TP: 5.7 g/dL
  gamma-GTP: 2 IU/L
[…], time 28 day
  TERMINAL_BW: 367.9 g
  APTT: 23.3 s
  Bas: 0%
  Eos: 1%
  Fbg: 302.6 mg/dL
  Hb: 14.7 g/dL
  Ht: 42.7%
  Lym: 78.4%
  MCH: 19.4 pg
  MCHC: 34.5%
  MCV: 56.1 fL
  Mono: 2.2%
  Neu: 17.2%
  PT: 16.4 s
  Plat: 98.2 x10_4/uL
  RBC: 761.2 x10_4/ul
  Ret: 2.6%
  WBC: 84.8 x10_2/uL
  KIDNEY_L: 1.3 g
  KIDNEY_R: 1.3 g
  KIDNEY_TOTAL: 2.6 g
  LIVER: 14.1 g
  ALP: 1055.8 IU/L
  ALT: 34.8 IU/L
  AST: 61.4 IU/L
  BUN: 18.2 mg/dL
  CRE: 0.2 mg/dL
  Ca: 10.3 mg/dL
  Cl: 105.8 meq/L
  DBIL: 0 mg/dL
  GLC: 175.2 mg/dL
  IP: 6.6 mg/dL
  K: 4 meq/L
  LDH: 131.6 IU/L
  Na: 144.2 meq/L
  PL: 141.8 mg/dL
  RALB: 3.1 g/dL
  TBIL: 0.02 mg/dL
  TC: 72.6 mg/dL
  TG: 138.4 mg/dL
  TP: 6.2 g/dL
  gamma-GTP: 1 IU/L
